BindingDB's records for doi:10.7270/Q2CV4GM1 (D3R/Abbott, 2015)
Values joined by “and” are separate entries in the source; they are usually repeats but may differ in a detail not shown here. Identical values can stand only once.

Biological target: T1, Tyrosine-protein kinase SYK [355-635] (Homo sapiens, UniProt P43405)
T1 construct: 355-635
Assay: SYK assay_HTRF

SMILES	IC50
CN(c1nc(Nc2ccc3cnn(C)c3c2)ncc1F)c1cccc2[nH]ncc12 [GTC000276A]	5.98 nM
O=S1(=O)NCc2ccc(Nc3nccc(N(CCCO)c4cccc5[nH]ncc45)n3)cc21 [GTC000226B]	0.412 nM and 0.746 nM and 2.23 nM and 3.35 nM and 0.925 nM and 2.21 nM and 3.52 nM and 3.44 nM
CC(C)ONS(=O)(=O)c1cccc(Nc2nccc(Nc3cccc4[nH]ncc34)n2)c1 [GTC000178A]	685 nM
CCCN(c1nc(Nc2ccc3c(c2)S(=O)(=O)NC3)ncc1F)c1cccc2[nH]ncc12 [GTC000243A]	4.09 nM and 3.13 nM and 3.56 nM and 9.55 nM and 5 nM and 4.1 nM and 3.04 nM and 3.52 nM and 5.97 nM
Cn1ncc2ccc(Nc3nccc(N(CCCO)c4cccc5[nH]ncc45)n3)cc21 [GTC000270A]	6.95 nM
Cc1nc2cc(Nc3nccc(Nc4cccc5[nH]ncc45)n3)ccc2s1 [GTC000168A]	468 nM
COC(=O)c1ccc(Nc2nccc(Nc3cccc4[nH]ncc34)n2)cc1 [GTC000174A]	175 nM and 209 nM
c1ccc(COc2cccc(Nc3nccc(Nc4cccc5[nH]ncc45)n3)c2)cc1 [GTC000173A]	148 nM and 195 nM and 348 nM and 710 nM
Cc1cc(=O)[nH]c2c(C)cc(Nc3nccc(Nc4cccc5[nH]ncc45)n3)cc12 [GTC000177A]	13.9 nM and 43.1 nM and 35.4 nM and 19.6 nM
c1cc(Nc2nccc(Nc3cccc4[nH]ncc34)n2)cc(-c2cnco2)c1 [GTC000156A]	18.7 nM and 33.6 nM
CCN(c1nc(Nc2ccc(S(N)(=O)=O)cc2)ncc1F)c1cccc2[nH]ncc12 [GTC000261A]	5.04 nM
O=C1Nc2ccc(Nc3nccc(Nc4cccc5[nH]ncc45)n3)cc2CO1 [GTC000149A]	7.21 nM and 25.2 nM
CCN(c1nc(Nc2ccc3[nH]c(=O)[nH]c3c2)ncc1F)c1cccc2[nH]ncc12 [GTC000237B]	1.87 nM and 6.87 nM and 3.76 nM and 3.14 nM and 8.63 nM and 2.75 nM
Cc1nc2ccc(Nc3nccc(Nc4cccc5[nH]ncc45)n3)cc2s1 [GTC000123A]	60.1 nM and 88.5 nM
CN(c1nc(Nc2ccc3c(c2)COC(=O)N3)ncc1F)c1cccc2[nH]ncc12 [GTC000248A]	3.9 nM
CCN(c1nc(Nc2cc(S(N)(=O)=O)ccc2C)ncc1F)c1cccc2[nH]ncc12 [GTC000364A]	102 nM
CCN(c1nc(Nc2ccc(N)c(OC(C)=O)c2)ncc1F)c1cccc2[nH]ncc12 [GTC000348A]	30.5 nM
CCN(CC)CCCN(c1ccnc(Nc2cccc(S(N)(=O)=O)c2)n1)c1cccc2[nH]ncc12 [GTC000329A]	23.2 nM and 12.7 nM and 55.7 nM and 25.3 nM
CCN(c1nc(Nc2cccc(-c3cnco3)c2)ncc1Cl)c1cccc2[nH]ncc12 [GTC000317A]	9.93 nM and 24.8 nM and 41.3 nM
Oc1ccc(Nc2nccc(Nc3cccc4[nH]ncc34)n2)cc1 [GTC000138A]	195 nM and 50.5 nM
CCN(c1nc(Nc2ccc3[nH]c(=O)[nH]c3c2)ncc1Cl)c1cccc2[nH]ncc12 [GTC000290A]	6.7 nM and 12.6 nM

SMILES	IC50
CCN(c1nc(Nc2ccc3cn[nH]c3c2)ncc1F)c1cccc2[nH]ncc12 [GTC000247A]	4.25 nM
CCN(c1nc(Nc2ccc(C)c(S(N)(=O)=O)c2)ncc1F)c1cccc2[nH]ncc12 [GTC000349A]	35.9 nM
Cc1nc(-c2cccc(Nc3nccc(Nc4cccc5[nH]ncc45)n3)c2)no1 [GTC000148A]	6.7 nM and 32 nM
Cn1cnc2cc(Nc3nccc(Nc4cccc5[nH]ncc45)n3)ccc21 [GTC000162A]	110 nM and 94 nM and 245 nM
CS(=O)(=O)c1cccc(Nc2nccc(N(CCO)c3cccc4[nH]ncc34)n2)c1 [GTC000311A]	15.3 nM
CCN(c1nc(Nc2ccc3c(cnn3C(C)C)c2)ncc1F)c1cccc2[nH]ncc12 [GTC000305A]	29.2 nM and 7.13 nM
COCCN(c1ccnc(Nc2ccc3c(c2)S(=O)(=O)NC3)n1)c1cccc2[nH]ncc12 [GTC000285A]	8.34 nM
Cc1cc(NS(=O)(=O)c2ccc(Nc3nccc(Nc4cccc5[nH]ncc45)n3)cc2)no1 [GTC000189A]	741 nM and 942 nM and 582 nM
CN(c1nc(Nc2ccc3[nH]c(=O)[nH]c3c2)ncc1F)c1cccc2[nH]ncc12 [GTC000264A]	5.3 nM
CCN(c1nc(Nc2cccc(C(N)=O)c2)ncc1F)c1cccc2[nH]ncc12 [GTC000318A]	13.4 nM and 35.2 nM
O=C1NC(=O)c2cc(Nc3nccc(Nc4cccc5[nH]ncc45)n3)ccc21 [GTC000171A]	506 nM
c1cc(Nc2ccnc(Nc3ccc4[nH]ncc4c3)n2)c2cn[nH]c2c1 [GTC000221A]	164 nM and 78.2 nM and 235 nM
Cc1ncoc1-c1cccc(Nc2nccc(N(CCCCO)c3cccc4[nH]ncc34)n2)c1 [GTC000286A]	7.64 nM
O=C1CNC(=O)N1c1ccc(Nc2nccc(Nc3cccc4[nH]ncc34)n2)cc1 [GTC000166A]	242 nM
COCCCN(c1nc(Nc2ccc3c(C)nn(CCCO)c3c2)ncc1F)c1cccc2[nH]ncc12 [GTC000279A]	7.52 nM
Cn1ncc2cc(Nc3nccc(Nc4cccc5[nH]ncc45)n3)ccc21 [GTC000164A]	58.5 nM and 86.1 nM and 214 nM
COCCCN(c1nc(Nc2cccc(-c3ocnc3C)c2)ncc1F)c1cccc2[nH]ncc12 [GTC000315A]	16.3 nM
NC(=O)c1cccc(Nc2ncc(F)c(N(CCCO)c3cccc4[nH]ncc34)n2)c1 [GTC000344A]	31.8 nM
CN(c1nc(Nc2ccc3c(c2)S(=O)(=O)NC3)ncc1F)c1cccc2[nH]ncc12 [GTC000249A]	11.6 nM and 1.99 nM
CCN(c1nc(Nc2cc(S(N)(=O)=O)ccc2OC)ncc1F)c1cccc2[nH]ncc12 [GTC000341A]	30.5 nM
O=c1[nH]c2ccc(Nc3nccc(Nc4cccc5[nH]ncc45)n3)cc2[nH]1 [GTC000115A]	78.3 nM

SMILES	IC50
CC(=O)N1CCC(CN(c2ccnc(Nc3ccc4[nH]c(=O)[nH]c4c3)n2)c2cccc3[nH]ncc23)CC1 [GTC000339A]	43.1 nM and 26.8 nM
O=C(Cc1ccc(Nc2nccc(Nc3cccc4[nH]ncc34)n2)cc1)Nc1ccc(Cl)cc1 [GTC000214A]	1400 nM
CCN(c1nc(Nc2cccc(S(C)(=O)=O)c2)ncc1F)c1cccc2[nH]ncc12 [GTC000300A]	11.3 nM
CC(=O)NCCCCCN(c1ccnc(Nc2ccc3[nH]c(=O)[nH]c3c2)n1)c1cccc2[nH]ncc12 [GTC000310A]	16.4 nM
c1cc(Nc2nccc(Nc3cccc4[nH]ncc34)n2)cc(-c2nnn[nH]2)c1 [GTC000130A]	3.43 nM and 14.3 nM
Cc1nn(CCCO)c2cc(Nc3ncc(F)c(N(CCCO)c4cccc5[nH]ncc45)n3)ccc12 [GTC000234A]	4.79 nM and 2.46 nM and 1.87 nM
CCN(c1nc(Nc2ccc3c(c2)S(=O)(=O)N(CC)C3)ncc1F)c1cccc2[nH]ncc12 [GTC000307A]	16.2 nM and 14 nM
CCN(c1nc(Nc2ccc(C)c(S(=O)(=O)NCCO)c2)ncc1F)c1cccc2[nH]ncc12 [GTC000343A]	32.7 nM
O=c1[nH]c2ccc(Nc3nccc(N(CC4CCNCC4)c4cccc5[nH]ncc45)n3)cc2[nH]1 [GTC000292A]	10.8 nM
COC(=O)CCCN(c1ccnc(Nc2ccc3c(c2)S(=O)(=O)NC3)n1)c1cccc2[nH]ncc12 [GTC000297A]	6.89 nM and 13.9 nM and 13.1 nM
CNC(=O)COc1ccc(Nc2nccc(Nc3cccc4[nH]ncc34)n2)cc1 [GTC000197A]	299 nM
Cn1ncc2ccc(Nc3nccc(Nc4cccc5[nH]ncc45)n3)cc21 [GTC000124A]	16.8 nM and 21.7 nM
CS(=O)(=O)c1cccc(Nc2nccc(N(CCCO)c3cccc4[nH]ncc34)n2)c1 [GTC000338A]	11.6 nM and 39.7 nM and 85.1 nM
O=S1(=O)CCc2ccc(Nc3ncc(F)c(N(CCCCO)c4cccc5[nH]ncc45)n3)cc21 [GTC000235A]	9.64 nM and 1.94 nM and 1.64 nM
CN(c1nc(Nc2ccc3c(cnn3C)c2)ncc1F)c1cccc2[nH]ncc12 [GTC000303A]	11.5 nM
COCCCN(c1ccnc(Nc2ccc3c(c2)COC(=O)N3)n1)c1cccc2[nH]ncc12 [GTC000238A]	2.92 nM
O=S(=O)(c1ccc(Nc2nccc(Nc3cccc4[nH]ncc34)n2)cc1)N1CCCC1 [GTC000188A]	1800 nM and 1340 nM
CCN(c1nc(Nc2ccc(N3CCN(C)CC3)cc2)ncc1F)c1cccc2[nH]ncc12 [GTC000363A]	105 nM
CCN(c1nc(Nc2ccc3c(c2)CCN3C(C)=O)ncc1F)c1cccc2[nH]ncc12 [GTC000319A]	18.2 nM
Cc1ncoc1-c1cccc(Nc2nccc(Nc3cccc4[nH]ncc34)n2)c1 [GTC000134A]	29.2 nM and 49.8 nM and 66.1 nM and 130 nM
COc1cccc(NC(=O)Cc2ccc(Nc3nccc(Nc4cccc5[nH]ncc45)n3)cc2)c1 [GTC000209A]	524 nM

SMILES	IC50
COCCCN(c1nc(Nc2ccc3c(c2)COC(=O)N3)ncc1F)c1cccc2[nH]ncc12 [GTC000273A]	6.78 nM
O=S1(=O)CCc2ccc(Nc3ncc(F)c(N(CC4CCCO4)c4cccc5[nH]ncc45)n3)cc21 (stereo not drawn) [GTC000278A]	7.98 nM
c1cc(Nc2ccnc(Nc3cccc4[nH]ncc34)n2)c2cn[nH]c2c1 [GTC000113A]	160 nM
CCN(c1nc(Nc2ccc3c(c2)C(C)(C)C(=O)N3)ncc1F)c1cccc2[nH]ncc12 [GTC000302A]	13.2 nM
CCN(c1nc(Nc2cccc(-c3cnco3)c2)ncc1F)c1cccc2[nH]ncc12 [GTC000306A]	9.02 nM and 16.6 nM and 26.1 nM
CCN(c1nc(Nc2ccc3c(c2)NC(=O)CO3)ncc1F)c1cccc2[nH]ncc12 [GTC000357A]	67.9 nM
CCN(c1nc(Nc2ccc3c(c2)C(=O)NC3)ncc1F)c1cccc2[nH]ncc12 [GTC000326A]	13.5 nM and 17.3 nM and 66.7 nM
c1cc(Nc2nccc(Nc3cccc4[nH]ncc34)n2)cc(-c2nc3ccccc3[nH]2)c1 [GTC000157A]	5.4 nM and 15.2 nM
CCN(c1nc(Nc2cccc(S(N)(=O)=O)c2)ncc1Cl)c1cccc2[nH]ncc12 [GTC000355A]	56.9 nM
NCCCN(c1ccnc(Nc2ccc3c(c2)S(=O)(=O)NC3)n1)c1cccc2[nH]ncc12 [GTC000227A]	0.857 nM and 0.75 nM and 3.63 nM
CC(C)(C)c1ccc(Nc2nccc(Nc3cccc4[nH]ncc34)n2)cc1 [GTC000176A]	508 nM
COCCCN(c1nc(Nc2cccc(S(N)(=O)=O)c2)ncc1F)c1cccc2[nH]ncc12 [GTC000301A]	12.1 nM
CCN(c1nc(Nc2ccc(C(=O)N3CCN(C)CC3)cc2)ncc1F)c1cccc2[nH]ncc12 [GTC000372A]	244 nM
COc1cc(Nc2nccc(Nc3cccc4[nH]ncc34)n2)cc(OC)c1 [GTC000118A]	35.3 nM and 67.1 nM and 93.5 nM and 203 nM
CCCN(c1nc(Nc2ccc3c(c2)S(=O)(=O)CC3)ncc1F)c1cccc2[nH]ncc12 [GTC000350A]	40.6 nM
CONS(=O)(=O)c1ccc(Nc2nccc(Nc3cccc4[nH]ncc34)n2)cc1 [GTC000180A]	200 nM and 276 nM
Cc1ccc(NC(=O)c2ccc(Nc3nccc(Nc4cccc5[nH]ncc45)n3)cc2)cc1 [GTC000183A]	546 nM and 618 nM
NC(=O)c1ccc(Nc2nccc(Nc3cccc4[nH]ncc34)n2)cc1 [GTC000108B]	100 nM and 218 nM and 51.4 nM and 59.8 nM
CCN(c1nc(Nc2ccc3c(c2)S(=O)(=O)NC3)ncc1Cl)c1cccc2[nH]ncc12 [GTC000222A]	12.7 nM and 15.6 nM and 9.33 nM
O=S(=O)(Nc1nccs1)c1ccc(Nc2nccc(Nc3cccc4[nH]ncc34)n2)cc1 [GTC000186A]	615 nM and 427 nM
